Experimental data published in article PMC5452262 (2016).

What was measured:
[1] = test system: TBP-regulated DNA-nanoswitch variant #1 (DNA, hairpin) CTATATAAACCTTTTATATATCTTGGGTAGG; experiment: fluorescence anisotropy titration; settings: 150 mM NaCl, 10 mM MgCl2; 50 mM sodium phosphate pH 7.0, 25 °C; 100 nM doxorubicin titrated with DNA
[2] = test system: TBP-regulated control #1 (lacks GC-rich stem) (DNA, hairpin) TTATATAAATTTTTTATATATTTTTTTTATT; experiment: fluorescence anisotropy; settings: 150 mM NaCl, 10 mM MgCl2; 50 mM sodium phosphate pH 7.0, 25 °C; equimolar doxorubicin and DNA, 100 nM
[3] = test system: TBP-regulated DNA-nanoswitch variant #3 (DNA, hairpin) CTATATAAACCGCCCTTTTATATATCTTGGGTAGGGCGG; experiment: fluorescence anisotropy titration; settings: 150 mM NaCl, 10 mM MgCl2; 50 mM sodium phosphate pH 7.0, 25 °C; 100 nM doxorubicin titrated with DNA
[4] = test system: antibody-regulated DNA-nanoswitch variant #1 (DNA, hairpin) TAGTTTTTTTTTTTTTTTTCTA; experiment: fluorescence anisotropy titration; settings: 150 mM NaCl, 10 mM MgCl2; 50 mM sodium phosphate pH 7.0, 25 °C; 100 nM doxorubicin titrated with DNA
[5] = test system: TBP-regulated DNA-nanoswitch variant #2 (DNA, hairpin) CTATATAAAGCCCTTTTATATATCTTGGGTAGGGC; experiment: fluorescence anisotropy titration; settings: 150 mM NaCl, 10 mM MgCl2; 50 mM sodium phosphate pH 7.0, 25 °C; 100 nM doxorubicin titrated with DNA
[6] = test system: antibody-regulated DNA-nanoswitch variant #2 (DNA, hairpin) TCCGTTTTTTTTTTTTTTTTCGGA; experiment: fluorescence anisotropy titration; settings: 150 mM NaCl, 10 mM MgCl2; 50 mM sodium phosphate pH 7.0, 25 °C; 100 nM doxorubicin titrated with DNA
[7] = test system: antibody-regulated DNA-nanoswitch variant #3 (DNA, hairpin) TCGCCGTTTTTTTTTTTTTTTTCGGCGA; experiment: fluorescence anisotropy titration; settings: 150 mM NaCl, 10 mM MgCl2; 50 mM sodium phosphate pH 7.0, 25 °C; 100 nM doxorubicin titrated with DNA

## COc1cccc2c1C(=O)c1c(O)c3c(c(O)c1C2=O)C[C@@](O)(C(=O)CO)C[C@@H]3O[C@H]1C[C@H](N)[C@H](O)[C@H](C)O1
[1]
  binding: yes
[2]
  binding: weak
[3]
  binding: yes
[4]
  binding: weak
[5]
  binding: yes
[6]
  binding: yes
[7]
  binding: yes
